Measured values: paper PMC6272448, “Synthesis, ^18F-Radiolabelling and Biological Characterization of Novel Fluoroalkylated Triazine Derivatives for in Vivo Imaging of Phosphodiesterase 2A in Brain via Positron Emission Tomography” (Molecules, 2015)

Molecular target: T1, PDE2A (Mus musculus, UniProt Q922S4)
T1 construct: from tissue; host or cells: living female CD-1 mice (brain, in vivo)
T1 sequence (Q922S4 1-939): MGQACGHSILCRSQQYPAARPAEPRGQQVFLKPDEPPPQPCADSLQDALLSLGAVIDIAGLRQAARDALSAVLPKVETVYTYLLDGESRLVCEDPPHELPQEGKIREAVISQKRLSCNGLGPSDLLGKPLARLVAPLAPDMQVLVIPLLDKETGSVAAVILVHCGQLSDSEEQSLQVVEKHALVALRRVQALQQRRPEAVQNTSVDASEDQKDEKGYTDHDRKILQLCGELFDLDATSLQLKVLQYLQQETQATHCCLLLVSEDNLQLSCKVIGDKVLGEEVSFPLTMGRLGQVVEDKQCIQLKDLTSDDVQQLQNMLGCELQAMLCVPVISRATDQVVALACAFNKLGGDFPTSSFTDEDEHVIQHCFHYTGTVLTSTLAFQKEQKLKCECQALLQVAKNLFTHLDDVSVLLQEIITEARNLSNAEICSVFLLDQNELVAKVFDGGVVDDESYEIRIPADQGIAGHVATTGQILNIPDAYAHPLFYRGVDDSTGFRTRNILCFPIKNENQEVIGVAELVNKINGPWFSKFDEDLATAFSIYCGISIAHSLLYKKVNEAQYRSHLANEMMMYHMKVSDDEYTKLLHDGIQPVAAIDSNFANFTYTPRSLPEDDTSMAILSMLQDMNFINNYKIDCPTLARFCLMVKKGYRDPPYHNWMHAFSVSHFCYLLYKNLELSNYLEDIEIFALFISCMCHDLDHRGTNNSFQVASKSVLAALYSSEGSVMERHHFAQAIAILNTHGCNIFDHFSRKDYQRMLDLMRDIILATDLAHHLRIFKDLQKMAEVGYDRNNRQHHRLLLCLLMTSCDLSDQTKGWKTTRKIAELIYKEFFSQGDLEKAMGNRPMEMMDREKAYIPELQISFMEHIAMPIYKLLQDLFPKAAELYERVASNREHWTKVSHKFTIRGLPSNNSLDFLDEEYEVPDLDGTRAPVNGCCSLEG
Assay: small-animal PET/MR baseline studies in mice
Format: in vivo
Settings: CD-1 mice, i.v. 9.7 ± 1.3 MBq, 0-55 min p.i., n = 4
Procedure: For PET/MR baseline studies of [^18F]TA3 in anaesthetized CD-1 mice, the radioligand was injected intravenously (9.7 ± 1.3 MBq, SAEOS ~70 GBq/µmol, n = 4), and whole body scans were performed for 60 min in listmode with a Mediso nanoScan PET/MR scanner followed by dynamic reconstruction. Time-activity curves (TACs) were generated for regions of interest such as whole brain, striatum, and cerebellum (Figure 8).
Female CD-1 mice (n = 4; age: 8 weeks; weight: 28.8 ± 1.2 g; supplier: Medizinisch-Experimentelles Zentrum Leipzig, Leipzig, Germany) were housed under a 12 h:12 h light-dark cycle at 26 °C in a vented animal cabinet. The animals received an injection of 9.7 ± 1.3 MBq of [^18F]TA3 into the tail vein followed by a 60 min PET/MR scan (Mediso nanoScan®, Budapest, Hungary). Each PET image was corrected for random coincidences, dead time, scatter and attenuation (AC), based on a whole body (WB) MR scan.
The reconstruction parameters for the list mode data are: 3D-ordered subset expectation maximization (OSEM), 4 iterations, 6 subsets, energy window: 400–600 keV, coincidence mode: 1–5, ring difference: 81. […]
The respective brain regions were identified using the MR information from the GRE scan. The activity data is expressed as mean standardized uptake value (SUV) of the overall ROI.

Structure (SMILES): COc1ccc2nnc3c(C)nc(-c4cc(OCCC[18F])ccc4F)n3c2n1 [[^18F]TA3]
- time-activity curve in cerebellum: constantly increased uptake in the cerebellum
- time-activity curve in striatum: fast wash out of activity from the striatum
